The data set can be described thus: In vitro permeation from TTS in Franz diffusion cell. As to conditions: TTS with 10% (m/m) active ingredient and 20% (m/m) solid urea of particle size >100 μm (B) versus TTS containing no urea (A); acrylate adhesive matrix; cow udder, 32° C., 72 h.
Method: A commercial acrylate adhesive was dissolved in a solvent. […] This acrylate adhesive composition was cast to form a reservoir layer 500 μm in thickness, and the solvent was evaporated, producing a matrix basis weight of 100 g/m^2. A number of experimental TTS were punched from this active ingredient laminate, and were then used for experiments in vitro.
The Franz diffusion cell is composed of a donor compartment and an acceptor compartment, separated by a membrane (cow udder). The donor compartment contains the TTS, while, for the acceptor compartment, a physiological buffer was used, conditioned to a temperature of 32° C. Samples were taken from the acceptor compartment over a period of 72 h, and were analyzed by HPLC for the permeated amount of active ingredient.
As for `Cn1c(=O)c2c(ncn2C)n(C)c1=O` [caffeine], the “increase in active ingredient permeation through the skin (cumulative permeated amount), factor” value (“increase” for short) was determined as 8.
With `c1ccc(Cn2c(N3CCNCC3)nc3ccccc32)cc1` [lerisetron], the “increase” value was determined as 9.
Consider `Clc1ccc2nsnc2c1NC1=NCCN1` [tizanidine], for which the “increase” value is listed as 4.

Source of the values: patent US9066887B2, “Transdermal therapeutic system having urea components” (LTS LOHMANN THERAPIE-SYSTEME AG, priority 2008, dated 2015).
